# From US10370409B2, “Synthesis of libraries of peptide tertiary amides” (The Scripps Research Institute, priority 2011, dated 2019)
# Like-named read-outs stand apart in the source and are kept apart here. Numbered stars: 1 amine (or outer) side, 2 acyl side, 3 side chain; on linkers, the order of the positions; unused ones are H or OH. Square brackets hold non-standard residues; d marks the D form. Peptide text beside a SMILES is read from it. X1 = COc1ccc(CN([C@@H](C)C(=O)[*:2])[*:1])cc1OC; Gly(Nα-4-F-phenethyl) = O=C(O)CNCCc1ccc(F)cc1; X3 = COc1ccc(CN(CC(=O)[*:2])[*:1])cc1OC; X2 = C[C@@H](C(=O)[*:2])N(CCCCN)[*:1]; Gly(N-propargyl) = C#CCNCC(=O)O; NFurfurylGly = O=C(O)CNCc1ccco1; Nlys = NCCCCNCC(=O)O
# What was measured:
# scFv PX4-4 = assay: Fluorescence polarization / anisotropy titration of fluorescein-labelled compounds with PX4-4; type: binding, human; settings: for Kd: FP titration with PX4-4
# Protocol: Hits identification: All 17 hits were cleaved using CNBr and then characterized by MALDI mass spectrum. All 17 structures were resynthesized and examined against PX4-4 with FP assay. Only one hit was identified as binder with a Kd <10 μM.
# (§1) The affinity of compound 13 for PX4-4 was determined by fluorescence anisotropy.
# 96 beads were chosen randomly from the library and placed individually into the wells of a 96-well filter plate. Each well was treated with fluorescein azide and a copper catalyst to attach fluorescein to the alkyne handle and then the compounds were cleaved from beads. The beads were filtered out and the soluble compounds were used for the fluorescence polarization (FP) assay. All 27 possible structures were found in this collection of molecules by tandem MS sequencing. Semi-quantitative binding constants for the PX4-4 antibody all 27 of the compounds were determined by titrating the compounds with the protein in the microwell format and monitoring the increase in FP. […] Most of the curves approached saturation, allowing for an accurate determination of the KD. In contrast, compound A41, corresponding to peptoid 14), was not saturated in the tested protein concentration range (100 nM to 400 μM) (FIG. 9B).
# whole human IgG = assay: Fluorescence polarization selectivity test with a mixture of human IgG; type: binding; settings: FP experiment repeated using a mixture of human IgG; FIG. 9B
# Protocol: as §1
# To address the selectivity of compounds A14 (N,R,S configuration), A7 (N,S,S), A68 (R,S,R), A41(N,N,N) and A24 (R,R,R) for PX4-4, the FP experiment was repeated using a mixture of human IgG as we did previously for compound 13. […] This implies that greater conformational flexibility is associated with binding promiscuity.
# [1] = re-synthesized and purified compounds, read-out: Kd-re
# [2] = semi-quantitative, compounds cleaved from single beads, 96-well microwell format, read-out: Kd-96
Kd (scFv PX4-4; [1]) [µM],Kd (scFv PX4-4; [2]) [µM],binding with whole human IgG (whole human IgG),"saturation of FP binding curve with PX4-4 (scFv PX4-4; protein concentration range 100 nM to 400 μM, FIG. 9B)",Structure (SMILES)
19.1,27.5,no binding,–,[2H]C([2H])([2H])[C@]([2H])(C(=O)N(CCc1ccc(F)cc1)CC(=O)N(CCCCN)CC(=O)N(CC#C)CC(=O)N(CCCCN)CC(=O)N(CC(N)=O)Cc1ccco1)N(CCCCN)C(=O)[C@H](C)NCc1ccc(OC)c(OC)c1 [A14]
233,117,no binding,–,[2H]C([2H])([2H])[C@@]([2H])(NCc1ccc(OC)c(OC)c1)C(=O)N(CCCCN)[C@@]([2H])(C(=O)N(CCc1ccc(F)cc1)[C@@]([2H])(C(=O)N(CCCCN)CC(=O)N(CC#C)CC(=O)N(CCCCN)CC(=O)N(CC(N)=O)Cc1ccco1)C([2H])([2H])[2H])C([2H])([2H])[2H] [A24]
25.4,40.9,no binding,–,C#CCN(CC(=O)N(CCCCN)CC(=O)N(CC(N)=O)Cc1ccco1)C(=O)CN(CCCCN)C(=O)CN(CCc1ccc(F)cc1)C(=O)[C@H](C)N(CCCCN)C(=O)[C@H](C)NCc1ccc(OC)c(OC)c1 [A7] (H-[X1][X2][Gly(Nα-4-F-phenethyl)][Nlys][Gly(N-propargyl)][Nlys][NFurfurylGly]-NH2)
–,113,–,not saturated,C#CCN(CC(=O)N(CCCCN)CC(=O)N(CC(N)=O)Cc1ccco1)C(=O)CN(CCCCN)C(=O)CN(CCc1ccc(F)cc1)C(=O)CN(CCCCN)C(=O)CNCc1ccc(OC)c(OC)c1 [A41] (H-[X3][Nlys][Gly(Nα-4-F-phenethyl)][Nlys][Gly(N-propargyl)][Nlys][NFurfurylGly]-NH2)
65.2,43.2,no binding,–,[2H]C([2H])([2H])[C@@]([2H])(NCc1ccc(OC)c(OC)c1)C(=O)N(CCCCN)[C@@H](C)C(=O)N(CCc1ccc(F)cc1)[C@@]([2H])(C(=O)N(CCCCN)CC(=O)N(CC#C)CC(=O)N(CCCCN)CC(=O)N(CC(N)=O)Cc1ccco1)C([2H])([2H])[2H] [A68]
